Blank lines part the entries; values can stand above or below the molecule they belong to.
Assays:
Type in all cases: binding
[1] = target: R1 (scFv fluorescence-activating protein, FAP); assay: fluorescence ligand depletion titration with […] R1; conditions: read-out: TO
[2] = target: HL1.0.1-TO1 (scFv fluorescence-activating protein, FAP); assay: fluorescence ligand depletion titration with […] FAP; conditions: read-out: TO1-2p
[3] = target: HL1.0.1-TO1 (scFv fluorescence-activating protein, FAP); assay: fluorescence; conditions: read-out: TO1-2p-Cy5
[4] = target: R1 (scFv fluorescence-activating protein, FAP); assay: fluorescence; conditions: read-out: Coumarin-TO

- Kd [1]: 170 pM
Molecule: CN1/C(=C/c2cc[n+](C)c3ccccc23)Sc2ccccc21 [TO]

- Kd [2]: 300 pM
Molecule: TO1-2p

- Kd [3]: 12000 pM
Molecule: TO1-2p-Cy5

- Kd [4]: 1100 pM
Molecule: coumarin-TO

Source: PMC4520264 (Organic & biomolecular chemistry, 2015)
